Source: patent US9987361B1, “Compositions and method for sustained drug delivery by active transdermal technology” (Noven Pharmaceuticals, Inc., priority 2014, dated 2018)

What was measured:
[1] = tested on: microchannels in skin made by a microneedle device; assay: In vivo impedance after microneedle pretreatment; details: swine; DPG formulated with saturated compound, applied after microneedle pretreatment; FIG. 5
Experimental: Impedance (Z) was assessed in vivo in swine as a measure of skin integrity using the compositions described above. Microneedle devices were inserted into swine with an applicator and removed, followed by application of the formulations. Impedance was measured before and after microneedle pretreatment, and during application of the formulations (formulations were removed and reapplied at every time point).
FIG. 5 illustrates the in vivo impedance measured before and after microneedle pretreatment for the five formulations.

[2] = tested on: microchannels in skin made by a microneedle device; assay: In vivo transepidermal water loss (TEWL) after microneedle pretreatment; details: swine; DPG formulated with saturated compound, applied after microneedle pretreatment; FIG. 4
Experimental: Transepidermal water loss (TEWL) was assessed in vivo in swine as an indicator of skin integrity before and after microneedle pretreatment, using dipropylene glycol (DPG) formulated with saturated (i) cholesterol, (ii) curcumin, (iii) glycyrrhizin, (iv) diclofenac, or (v) no anti-healing compound. The diclofenac formulation was used as a positive control, and the formulation with no anti-healing compound was used as a negative control. Microneedle devices were inserted into swine skin with an applicator and removed, followed by application of the formulations. TEWL was measured before and after microneedle pretreatment, and during application of the formulations (formulations were removed and reapplied at every time point).
FIG. 4 illustrates the in vivo transepidermal water loss measured before and after microneedle pretreatment for the five formulations.

[3] = tested on: microchannels; details: reported in the literature; cited from earlier work

Row | Compound | impedance (Z) [1] | transepidermal water loss (TEWL), sustained level [2] | lifetime of microchannels [3]
1 | CC(C)CCC[C@@H](C)[C@H]1CC[C@H]2[C@@H]3CC=C4C[C@@H](O)CC[C@]4(C)[C@H]3CC[C@]12C [cholesterol] | low impedance throughout the study | higher sustained levels of TEWL than the formulation with no anti-healing compound | 
2 | COc1cc(/C=C/C(=O)CC(=O)/C=C/c2ccc(O)c(OC)c2)ccc1O [curcumin] | low impedance throughout the study | higher sustained levels of TEWL than the formulation with no anti-healing compound | 
3 | O=C(O)Cc1ccccc1Nc1c(Cl)cccc1Cl [diclofenac, reference compound] | low impedance throughout the study | highest sustained level of TEWL | extend the lifetime of microchannels
4 | CC1(C)[C@@H](O[C@H]2O[C@H](C(=O)O)[C@@H](O)[C@H](O)[C@H]2O[C@@H]2O[C@H](C(=O)O)[C@@H](O)[C@H](O)[C@H]2O)CC[C@]2(C)[C@H]3C(=O)C=C4[C@@H]5C[C@@](C)(C(=O)O)CC[C@]5(C)CC[C@@]4(C)[C@]3(C)CC[C@@H]12 [glycyrrhizin] | low impedance throughout the study | higher sustained levels of TEWL than the formulation with no anti-healing compound | 
